In publication PMC6757289, “Design and Characterization of SGK3-PROTAC1, an Isoform Specific SGK3 Kinase PROTAC Degrader” (ACS Chemical Biology, 2019):

Legend:
CDK18 = target: T1, CDK18 (Homo sapiens, UniProt Q07002); experiment: TMT global proteomic analysis of HEK293 cells; assay type: cell-based; conditions: HEK293, 0.3 μM, 8 h
T1 construct: global proteomic analysis of HEK293 cells treated in the presence or absence of 0.3 μM SGK3-PROTAC1; endogenous in cells; host or cells: HEK293
Procedure: To establish the specificity of SGK3-PROTAC1 employing an unbiased approach, we performed quantitative Tandem–Mass–Tag (TMT)-labeled global proteomic analysis of HEK293 cells treated in the presence or absence of 0.3 μM SGK3-PROTAC1 compared to either 0.3 μM cisSGK3-PROTAC1 or DMSO for 8 h. Experiments were undertaken in triplicate, and analysis in Proteome Discoverer v2.2 using the Mascot search engine allowed relative quantification of 8766 proteins.
Figure 4 TMT proteomic analysis of HEK293 cells treated with SGK3-PROTAC1. (A) Cells were treated with DMSO (control), SGK3-PROTAC1 (0.3 μM), or cisSGK3-PROTAC1 (0.3 μM) for 8 h and lysed. Lysates were subjected to immunoblot analysis with the indicated antibodies. (B) Lysates were examined by quantitative proteomics. […]
Cell culture and proteomic sample preparation
Cells pellets were lysed with 2 ml of lysis buffer (8 M Urea, 50 mM Ammonium bicarbonate containing protease inhibitor and phosphatase inhibitor). The sample were left on ice for 15 min and were then sonicated for 5 min in ice-cold water bath under high intensity with 30 sec on and off. After sonication, benzonase® endonuclease (Merck Millipore) with the volume ratio of 1: 100 were added into the lysate to degrade DNA and RNA. The lysate were then centrifuged at 12,000 rpm for 15 min at 4 °C, and supernatants were transferred into new eppendorf tubes. The protein concentration were measured with BCA assay (Pierce™ BCA Protein Assay Kit, Thermo). The lysate from each sample was reduced with 5 mM DTT at 45 °C for 30 min. Lysates were briefly centrifuged and were cool down to room temperature before alkylation in the dark with 10 mM iodoacetamide at room temperature. The alkylation was then quenched by the addition of 5 mM DTT. Samples were first digested by Lys-C with the weight ratio of 1:200 (w/w) for 4 h at 30 °c. Then, sample were diluted with 50 mM ammonium bicarbonate to 1.5 M Urea concentration. Samples were then digested with trypsin (Pierce trypsin, Thermo) at an enzyme to protein ratio of 1:50 (w/w) at room temperature with gentle shaking for overnight.
The digest was stopped by the addition of 1% TFA (v/v), centrifuged at 10,000 g for 10 min at room temperature.
The supernatant were desalted on 200 mg SepPak tC18 cartridge (Waters). Desalted peptides were dried by vacuum centrifugation using Speedvac (Thermo).
TMT labelling and Basic C18 reverse phase (bRP) chromatography fractionation Each sample (200 μg of peptides each) was re-suspended in 100 μL of 100 mM TEAB buffer. The TMT labelling reagents were equilibrated to room temperature and 41 μL anhydrous acetonitrile was added to each reagent channel and softly vortexed for 10 min. Peptides were transferred to the corresponding TMT channels and incubated for 1 h at room temperature. The reaction was quenched with 8 μL of 5% hydroxylamine. To ensure complete labelling, 1 µg of labelled samples from each channel were analyzed by LC-MS/MS prior to mix. After evaluation, the complete TMT labelled 9 samples were then combined, acidified and dried. Sep-Pak desalting was then performed and the elution was dried to completeness.
Ultimate 3000 high-pressure liquid chromatography (HPLC) system (Dionex) were used for basic C18 reverse phase chromatography fractionation operating at 569 µL/min with two buffers: buffer A (10 mM ammonium formate, pH 10) and buffer B (80% ACN, 10 mM ammonium formate, pH 10). […]

[1] = tested on: mTORC1-mediated phosphorylation of S6K1 at Thr389; experiment: mTORC1 signaling in ZR-75-1 cells treated with PI3K or Akt inhibitor, immunoblot; assay type: cell-based; conditions: ZR-75-1, 5 days 1 μM GDC0941 or AZD5363; 0.3 μM
Procedure: We therefore aimed to investigate the effect that degradation of SGK3 would have on this resistance pathway and whether SGK3-PROTAC1 treatment could reverse inhibitor resistance. To investigate the effect of SGK3-PROTAC1 under these conditions, we treated CAMA-1 (Figure 5A,C) or ZR-75-1 (Figure 5B,D) for 5 days with either a class 1A PI3K inhibitor (GDC0941 1 μM;[38]Figure 5A,B) or an Akt inhibitor (AZD5363, 1 μM;[39]Figure 5C,D). These cells were treated with SGK3-PROTAC1 or cisSGK3-PROTAC1 (0.3 μM) for either 5 days in combination with the inhibitors or 8 h before lysis.
Figure 5 SGK3-PROTAC1-mediated degradation of SGK3 inhibits Akt-independent activation of mTORC1 in cancer cell lines treated with Akt or PI3K inhibitors. CAMA-1 (A, C) or ZR-75-1 (B, D) were treated for 5 days with 1 μM GDC0941 (A, B) or 1 μM AZD5363 (C, D). […]
All cell treatments were carried out as described in figure legends, to a final DMSO concentration of 0.1% (v/v). Lysates were quantified. […] Lysate concentration was quantified by Bradford Assay, and 10 μg of lysate was loaded in the LDS sample buffer for SDS-PAGE electrophoresis on Novex 4–12% Bis–Tris gels. […] The signal was produced with near-infrared secondary antibodies and detected using a Licor Biosciences Odyssey System, and the signal was quantified in Image Studio Lite.

T1 sequence (Q07002 whole entry): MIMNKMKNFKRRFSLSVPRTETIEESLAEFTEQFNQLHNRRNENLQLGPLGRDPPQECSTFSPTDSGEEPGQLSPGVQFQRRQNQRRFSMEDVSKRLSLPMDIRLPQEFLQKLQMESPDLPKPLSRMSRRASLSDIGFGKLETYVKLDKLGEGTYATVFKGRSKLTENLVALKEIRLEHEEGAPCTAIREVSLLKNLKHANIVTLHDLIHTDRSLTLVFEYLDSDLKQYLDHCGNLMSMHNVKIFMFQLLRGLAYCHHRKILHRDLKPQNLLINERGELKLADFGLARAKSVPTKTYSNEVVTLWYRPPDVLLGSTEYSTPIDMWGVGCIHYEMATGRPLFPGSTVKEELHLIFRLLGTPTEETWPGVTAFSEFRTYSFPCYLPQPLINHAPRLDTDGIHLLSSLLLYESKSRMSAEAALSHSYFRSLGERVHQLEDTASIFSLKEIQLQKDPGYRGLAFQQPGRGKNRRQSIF

Question: What does the source list for `Cc1ccc(F)c(S(=O)(=O)Nc2ccc(-c3nc(OC[C@H]4CN(CCCCCCOCCOCCOCC(=O)N[C@H](C(=O)N5C[C@H](O)C[C@H]5C(=O)NCc5ccc(-c6scnc6C)cc5)C(C)(C)C)CCO4)c4cn[nH]c4n3)cc2)c1` [SGK3-PROTAC1]?
Answer: Abundances (Grouped) (CDK18): 66.1; Ratio: (SGK3-PROTAC1) / (cSGK3-PROTAC1) (CDK18): 0.727; Ratio: (compound) / (DMSO) (CDK18): 0.652; phosphorylation of S6K1 at Thr389 [1]: suppressed

Question: Which “Abundances (Grouped)” value (CDK18) does the source give for `Cc1ccc(F)c(S(=O)(=O)Nc2ccc(-c3nc(OC[C@H]4CN(CCCCCCOCCOCCOCC(=O)N[C@H](C(=O)N5C[C@@H](O)C[C@H]5C(=O)NCc5ccc(-c6scnc6C)cc5)C(C)(C)C)CCO4)c4cn[nH]c4n3)cc2)c1` [cisSGK3-PROTAC1] here?
Answer: 126.5

Question: What about the “Ratio: (compound) / (DMSO)” value (CDK18) of the same compound?
Answer: 1.144

Question: What about the “phosphorylation of S6K1 at Thr389” value [1] of the same compound?
Answer: no significant effect
